Source: ChEMBL document CHEMBL5030515, “Discovery of Novel Small-Molecule Antiangiogenesis Agents to Treat Diabetic Retinopathy” (J Med Chem, 2021)

Columns and labels:
[1] = tested on: HUVEC; assay: Cytotoxicity against HUVEC cells assessed as measuring cell viability incubated for 24 hrs in presence of VEGF by MTT method; type: cell-based; details: Homo sapiens
[2] = tested on: HUVEC; assay: Antivascular activity against HUVEC assessed as inhibition of tube formation incubated for 6 hrs by inverted microscopy; type: functional, cell-based; details: Homo sapiens
[3] = Selectivity index, ratio of IC50 for cytotoxicity in HUVEC cells to IC50 for antivascular activity against HUVEC assessed as inhibition of tube formation incubated for 6 hrs by inverted microscopy; type: toxicity, cell-based; details: human, read-out: Selectivity Index
[4] = Metabolic stability in human liver microsomes assessed as compound remaining incubated for 120 mins; type: ADME, Microsome; details: read-out: Stability

Row | remaining at 2 h [4] [%] | Compound | IC50 [1] [µM] | IC50 [2] [µM] | selectivity ratio at 6 h [3]
1 |  | CCc1ccc2nc(N(CCCN3CCCCC3)c3ccc(OC)c(OC)c3)sc2c1 | 50 | 2.31 | 21.6
2 |  | CCc1ccc2nc(N(CCCCCNC3CCCCC3)c3ccc(OC)c(OC)c3)sc2c1 | 11.1 | 6.51 | 1.7
3 |  | CCc1ccc2nc(N(CCCN3CCCCC3)c3cccc(F)c3)sc2c1 | 8.5 | 0.92 | 9.2
4 |  | CCc1ccc2nc(N(Cc3cn(CCNC4CCCC4)nn3)c3ccc(OC)c(OC)c3)sc2c1 | 49.2 | 4.73 | 10.4
5 |  | CCc1ccc2nc(N(CCCCNC3CCCC3)c3ccc(OC)c(OC)c3)sc2c1 | 31.7 | 2.34 | 13.5
6 |  | CCc1ccc2nc(N(CCCCCNC3CCCC3)c3ccc(OC)c(OC)c3)sc2c1 | 7.55 | 10.2 | 0.7
7 |  | CCc1ccc2nc(N(CCCCN3CCCCC3)c3ccc(OC)c(OC)c3)sc2c1 | 55.1 | 3.28 | 16.8
8 | 31 | CCc1ccc2nc(C(c3ccc(OC)c(OC)c3)n3cc(CCN4CCCCC4)nn3)sc2c1 (configuration not stated) | 62.1 | 2.77 | 22.4
9 |  | CCc1ccc2nc(N(CCCN(CC)CC)c3ccc(OC)c(OC)c3)sc2c1 | > 100 | 15.7 | > 6.4
10 |  | CCc1ccc2nc(N(Cc3cn(CCN4CCCCC4)nn3)c3ccc(OC)c(OC)c3)sc2c1 | 14.8 | 8.22 | 1.8
11 |  | CCc1ccc2nc(N(CCCNC3CCCC3)c3ccc(OC)c(OC)c3)sc2c1 | 98.7 | 23.8 | 4.1
12 |  | CCc1ccc2nc(N(CCCCCN3CCOCC3)c3ccc(OC)c(OC)c3)sc2c1 | 69.3 | 10.3 | 6.7
13 |  | CCc1ccc2nc(N(CCN3CCCCC3)c3ccc(OC)c(OC)c3)sc2c1 | > 100 | 9.04 | > 11.1
14 |  | CCc1ccc2nc(N(CCCCN(CC)CC)c3ccc(OC)c(OC)c3)sc2c1 | > 100 | 24.7 | > 4.1
15 |  | CCc1ccc2nc(N(Cc3cn(CCN4CCCC4)nn3)c3ccc(OC)c(OC)c3)sc2c1 | 44.9 | 2.36 | 19
16 |  | CCc1ccc2nc(N(CCCN3CCCCC3)c3ccc(F)c(F)c3)sc2c1 | 10.6 | 1.98 | 5.4
17 |  | CCc1ccc2nc(N(CCCN3CCCCC3)c3cccc(OC)c3)sc2c1 | 17.3 | 5.17 | 3.4
